Assay results as given in patent publication US9458145B2, “Benzimidazole derivatives as bromodomain inhibitors” (Gilead Sciences, Inc., priority 2013, dated 2016).
Read-outs that look alike come from different tables or passages of the source. Each block holds one molecule with its values, some of them ahead of it.

Experiments:
[1] = target: BRD4-1 (Homo sapiens (Human), UniProt O60885); test: BRD4-1 Ligand KI assay (TR-FRET, Cy5 labeled ligand displacement); type: binding
Procedure: (§1) BRD4-1 Ligand KI and BRD4-2 Ligand KI Assays
(§2) Binding of the two tandem bromodomains, BRD4-I and BRD4-2, to a Cy5 labeled probe/ligand (Compound 1020-501) were measured using a homogeneous time resolved fluorescence resonance energy transfer (TR-FRET) assay.
(§3) The labeled ligand specifically binds BRD4-1 and BRD4-2 and can be displaced by a small molecule inhibitor that shares a similar or overlapping binding site. BRD4-I and BRD4-2 were expressed and purified from Escherichia coli as N-terminal His6, tagged proteins. A Eu-cryptate labeled anti-His antibody (Perkin Elmer) was used to specifically bind BRD4. […] Assays were performed in 50 mM Hepes (pH 7.5), 150 mM NaCl, 0.1 mg/ml BSA, 0.01% (v/v) Brij, 0.5% (v/v) DMSO and 10 nM labeled ligand at the following concentrations for each BRD4 isoform: 2 nM BRD4-1 and 0.5 nM BRD4-2. After an assay reaction time of 60 minutes at 25° C., binding was measured with 2 nM Eu-cryptate labeled anti-His antibody. TR-FRET signal was detected on an Envision plate reader (Ex: 320 nm; Em: 615/665 nm; 100 μs delay and 200 μs read window). […] All IC50 values represent geometric mean values of a minimum of four determinations. The IC50 values were converted to Ki values (dissociation constant for BRD4-inhibitor complex) using the Cheng and Prusoff equation for a competitive inhibitor mode of action. These assays generally produced results within 3-fold of the reported mean.

[2] = target: BRD4-2 (Homo sapiens (Human), UniProt O60885); test: BRD4-2 Ligand KI assay (TR-FRET, Cy5 labeled ligand displacement); type: binding
Procedure: as §1, §2, §3

[3] = tested on: MT-4 cells; test: MT-4 proliferation assay; type: cell-based, human; details: Table 1, 5 days, Cell Titer Glo, method text calls it EC50, read-out: MT4 Assay, (IC50)
Procedure: MT-4 Proliferation Assay:
Compounds were tested in a standardized high-throughput 384-well assay format. Each compound was serially diluted 3-fold in 100% DMSO in polypropylene 384-well plates using a Biomek FX Workstation, and 0.4 μL compound added to an assay plate containing 40 μL RPMI media. Compounds were arranged in a horizontal pattern, with 10 concentrations per compound, and 8 compounds added per plate. Due to low DMSO tolerability, the final DMSO concentration never exceeded 0.5% (v/v). Each assay plate contained 10 μM Puromycin and 0.5% DMSO in RPMI-1640 as positive and negative controls respectively. MT-4 cells (HTLV-1 transformed, human T lymphoblastoid cells, NIH Aids Reagent program) were added in volumes of 35 μL per well and 2,000 cells per well using a Biotek uFlow Workstation (Biotek, Winooski, Vt.), and the plates subsequently incubated for 5 days at 37° C. in an incubator set at 5% CO2 and 90% humidity.
After 5 days, 22 μL Cell Titer Glo (Promega) was added to the assay plates with a Biotek uFlow Workstation. Plates were subsequently placed on a Perkin Elmer Envision Plate Reader for 5 minutes before the luminescence signal was read.

[4] = 2 nM BRD4-1, 10 nM labeled ligand, IC50 converted to Ki by Cheng and Prusoff
[5] = 0.5 nM BRD4-2, 10 nM labeled ligand, IC50 converted to Ki by Cheng and Prusoff

IC50 [1, 4]: 5.4 nM | IC50 [2, 5]: 3.6 nM
SMILES: Cc1noc(C)c1-c1cc(C(O)(c2cccnn2)C2CCC(C)(C)O2)c2nc(C3CC3)[nH]c2c1 (single isomer, unassigned) [Compound 1020-298, (2-cyclopropyl-6-(3,5-dimethylisoxazol-4-yl)-1H-benzo[d]imidazol-4-yl)(5,5-dimethyltetrahydrofuran-2-yl)(pyridazin-3-yl)methanol]

IC50 [1]: 5.9 nM | IC50 [2]: 6 nM
SMILES: Cc1noc(C)c1-c1cc(C(O)(c2ccccn2)c2ncccn2)c2nc(C3CC3)[nH]c2c1 (racemic) [Compound 1020-239, (R) and (S)-(2-cyclopropyl-6-(3,5-dimethylisoxazol-4-yl)-1H-benzo[d]imidazol-4-yl)(pyridin-2-yl)(pyrimidin-2-yl)methanol]

SMILES: Cc1noc(C)c1-c1cc(C(O)(c2cccnn2)C2CCCO2)c2nc(C3CC3)[nH]c2c1 (single isomer, unassigned) [Compound 1020-289, (2-cyclopropyl-6-(3,5-dimethylisoxazol-4-yl)-1H-benzo[d]imidazol-4-yl)(pyridazin-3-yl)(tetrahydrofuran-2-yl)methanol]
IC50 [1, 4]: 2 nM | IC50 [2, 5]: 2 nM

SMILES: Cc1noc(C)c1-c1cc(S(=O)(=O)NC2CCCC2)c2nc(NCC3CC3)[nH]c2c1 [Compound 1020-1, N-Cyclopentyl-2-(cyclopropylmethylamino)-6-(3,5-dimethylisoxazol-4-yl)-1H-benzo[d]imidazole-4-sulfonamide]
IC50 ([3]; Homo sapiens, MT4, 120 h): 193 nM

SMILES: Cc1noc(C)c1-c1cc(C(O)(c2ccccc2)c2ccccc2)c2nc(C3CC3)[nH]c2c1 [Compound 1020-102, (2-Cyclopropyl-6-(3,5-dimethylisoxazol-4-yl)-1H-benzo[d]imidazol-4-yl)diphenylmethanol]
IC50 ([3]; Homo sapiens, MT4, 120 h): 49.7 nM

SMILES: CSc1nc2c(S(=O)(=O)NC3CCCC3)cc(-c3c(C)noc3C)cc2[nH]1 [Compound 1020-4, N-Cyclopentyl-6-(3,5-dimethylisoxazol-4-yl)-2-(methylthio)-1H-benzo[d]imidazole-4-sulfonamide]
IC50 ([3]; Homo sapiens, MT4, 120 h): 192 nM

SMILES: Cc1n[nH]c(C)c1-c1cc(-c2c(C)noc2C)cc2[nH]c(C3CCC3)nc12 [Compound 1020-75, 4-(2-Cyclobutyl-4-(3,5-dimethyl-1H-pyrazol-4-yl)-1H-benzo[d]imidazol-6-yl)-3,5-dimethylisoxazole]
IC50 [3]: 18.4 nM
